Source: US20250197864A1, “LNCRNA TRANSCRIPTS IN MELANOMAGENESIS” (The Regents of the University of California, priority 2021, published 2025)

How the values were obtained:
[1] = system: AC004540.4 (TRASH) in MM415 cells; assay: MEK-inhibitor-induced upregulation, RT-qPCR; type: cell-based, human; conditions: 72 hours, vs DMSO
Description: (§1) TRIzol, Phenol:chloroform:isoamyl alcohol (125:24:1) or NucleoSpin RNA kit (TaKaRa) was used for extracting Total RNA from cells and tissues according to the manufacturer's instructions. Total RNA was quantified by NanoDrop ND-1000 (Thermo Scientific) or Quibit 4 (Thermo Fisher). 50 ng or RNA was reverse transcribed using the cDNA synthesis and gDNA removal QuantiTect Reverse Transcription Kit. Real time PCR was performed using the iTaq Universal SYBR Green Supermix, 10 ng (20 ng for RIP Assay) of cDNA and on a QuantStudio™ 5 Real-Time PCR System or a 7500 fast real time PCR system. Relative gene expression was calculated using the comparative Ct method, normalized to GAPDH or β-actin. Primer sequences are listed in Supplementary Table 1.
(§2) Cells were either treated with trametinib (MEKi) or DMSO (control). Treatment period was 72 hours. CT-values were normalized to GAPDH, error bars represent standard deviation. All experiments were performed in triplicates (n=3/group). (FIG. 5b)

[2] = system: AC004540.4 (TRASH) in D04 cells; assay: MEK-inhibitor-induced upregulation, RT-qPCR; type: cell-based, human; conditions: 72 hours, vs DMSO, normalized to GAPDH
Description: as §1, §2

MM415 melanoma cell line = assay: Cell viability assay (ATP quantitation); type: cell-based, human; conditions: 50 nM, 5 days (120 hrs), vs non-targeting control
Description: (§3) EsiRNA, siRNA and ASO GapmeRs were transfected in a final concentration of 50 nM unless mentioned otherwise and the transfection reagent Lipofectamine 3000 (2 ul/ml) was added according to the manufacturer's instructions.
(§4) Dependent on cell doubling time, 0.7-2×10^^3 cells were seeded in 96 well plates. 1 day after seeding cells were incubated in media with oligonucleotide concentration and/or MEKi and transfection reagent. 3 (synergy experiments) or 5 (solely ASO) days after transfection Total luminescence was measured on the SynergyHT plate reader (BioTek) using Gen5 software.

D04 melanoma cell line = assay: Cell viability assay (ATP quantitation); type: cell-based, human; conditions: 50 nM, 5 days (120 hrs), vs non-targeting control
Description: as §3, §4

melanoma cell lines = assay: Cell viability assay (ATP quantitation), melanoma panel; type: cell-based, human; conditions: 50 nM oligonucleotide, 72 hours, vs non-targeting pooled siRNA
Text: Human melanoma cell line VMM39 was purchased from American Type Culture Collection (ATCC). Human melanoma cell lines D04, MM415, WM1366, WM3629, WM3211, Sk-Mel-2 and Sk-Mel-28 were a generous gift from Boris Bastian at the University of California, San Francisco. Primary human melanoma cell line Hs852.T was purchased from the Cell Culture Core Facility (CCCF) at the University of California, San Francisco. Primary human melanoma cell line AV5 was obtained from metastasis of a melanoma patient. All experimental protocols were approved by UCSF Human Research Protection Program Institutional Review Board (IRB #12-0948), all patients signed informed consent, and methods were carried out in accordance with relevant guidelines and regulations. Resistant cell lines DO4RM, MM415RM, Sk-Mel-2RM and WM3629RM were established as previously described. [Sanlorenzo, M. et al., The lincRNA MIRAT binds to IQGAPI and modulates the MAPK pathway in NRAS mutant melanoma. Sci Rep 8, 10902 (2018).] Primary human melanocytic cell lines (PHM) from infant foreskin of five healthy donors were available in our cell repository and pooled. […]
Dependent on cell doubling time, 0.7-2×10^^3 cells were seeded in 96 well plates. […] 3 (synergy experiments) or 5 (solely ASO) days after transfection Total luminescence was measured on the SynergyHT plate reader (BioTek) using Gen5 software.

[3] = system: Sk-Mel-2-RM trametinib resistant melanoma cell line; assay: Cell viability assay (ATP quantitation); type: cell-based; conditions: 50 nM, 5 days, vs non-targeting control
Text: (§5) Human melanoma cell line VMM39 was purchased from American Type Culture Collection (ATCC). Human melanoma cell lines D04, MM415, WM1366, WM3629, WM3211, Sk-Mel-2 and Sk-Mel-28 were a generous gift from Boris Bastian at the University of California, San Francisco. Primary human melanoma cell line Hs852.T was purchased from the Cell Culture Core Facility (CCCF) at the University of California, San Francisco. Primary human melanoma cell line AV5 was obtained from metastasis of a melanoma patient. All experimental protocols were approved by UCSF Human Research Protection Program Institutional Review Board (IRB #12-0948), all patients signed informed consent, and methods were carried out in accordance with relevant guidelines and regulations. Resistant cell lines DO4RM, MM415RM, Sk-Mel-2RM and WM3629RM were established as previously described. [Sanlorenzo, M. et al., The lincRNA MIRAT binds to IQGAPI and modulates the MAPK pathway in NRAS mutant melanoma. Sci Rep 8, 10902 (2018).] Primary human melanocytic cell lines (PHM) from infant foreskin of five healthy donors were available in our cell repository and pooled. Melanoma cell lines were maintained in RPMI 1640 media supplemented with 10% (vol/vol) heat inactivated fetal bovine serum. Melanocytes were maintained in M254 medium with HMGS supplements (1× final solution). All cell lines were incubated at 37° C. under 5% CO2.
as §3, §4

[4] = system: D04RM trametinib resistant melanoma cell line; assay: Cell viability assay (ATP quantitation); type: cell-based; conditions: 50 nM, 5 days, vs non-targeting control
Text: as §5, §3, §4

[5] = system: WM3629RM trametinib resistant melanoma cell line; assay: Cell viability assay (ATP quantitation); type: cell-based; conditions: 50 nM, 5 days, vs non-targeting control
Text: as §5, §3, §4

[6] = system: MM415RM trametinib resistant melanoma cell line; assay: Cell viability assay (ATP quantitation); type: cell-based; conditions: 50 nM, 5 days, vs non-targeting control
Text: as §5, §3, §4

[7] = system: WM3211 melanoma cell line; assay: Cell viability assay (ATP quantitation); type: cell-based, human; conditions: 50 nM, 5 days (120 hrs), vs non-targeting control
Description: as §3, §4

[8] = system: WM3629 melanoma cell line; assay: Cell viability assay (ATP quantitation); type: cell-based, human; conditions: 50 nM, 5 days (120 hrs), vs non-targeting control
Description: as §3, §4

VMM39 melanoma cell line = assay: Cell viability assay (ATP quantitation); type: cell-based, human; conditions: 50 nM, 5 days (120 hrs), vs non-targeting control
Description: as §3, §4

[9] = system: AV5 primary melanoma cell line; assay: Cell viability assay (ATP quantitation); type: cell-based, human; conditions: 50 nM, 5 days (120 hrs), vs non-targeting control
Description: as §3, §4

[10] = system: Hs852.T primary melanoma cell line; assay: Cell viability assay (ATP quantitation); type: cell-based, human; conditions: 50 nM, 5 days (120 hrs), vs non-targeting control
Description: as §3, §4

[11] = system: WM1366 melanoma cell line; assay: Cell viability assay (ATP quantitation); type: cell-based, human; conditions: 50 nM, 5 days (120 hrs), vs non-targeting control
Description: as §3, §4

[12] = system: Sk-Mel-2 melanoma cell line; assay: Cell viability assay (ATP quantitation); type: cell-based, human; conditions: 50 nM, 5 days (120 hrs), vs non-targeting control
Description: as §3, §4

[13] = system: Sk-Mel-28 melanoma cell line; assay: Cell viability assay (ATP quantitation); type: cell-based, human; conditions: 50 nM, 5 days (120 hrs), vs non-targeting control
Description: as §3, §4

[14] = system: U20S osteosarcoma cell line; assay: Cell viability assay (ATP quantitation); type: cell-based; conditions: 50 nM, 5 days, vs non-targeting control
Description: as §3, §4

[15] = system: Hs940.T melanoma cell line; assay: Cell viability assay (ATP quantitation); type: cell-based; conditions: 50 nM, 5 days, vs non-targeting control
Description: as §3, §4

[16] = system: H929 multiple myeloma cell line; assay: Cell viability assay (ATP quantitation); type: cell-based; conditions: 50 nM, 5 days, vs non-targeting control
Description: as §3, §4

[17] = system: Sk-N-AS Neuroblastoma cell line; assay: Cell viability assay (ATP quantitation); type: cell-based; conditions: 50 nM, 5 days, vs non-targeting control
Description: as §3, §4

[18] = system: SW480 colon carcinoma cell line; assay: Cell viability assay (ATP quantitation); type: cell-based; conditions: 50 nM, 5 days, vs non-targeting control
Description: as §3, §4

MM485 melanoma cell line = assay: Cell viability assay (ATP quantitation); type: cell-based; conditions: 50 nM, 5 days, vs non-targeting control
Description: as §3, §4

A375 melanoma cell line = assay: Cell viability assay (ATP quantitation); type: cell-based; conditions: 50 nM, 5 days, vs non-targeting control
Description: as §3, §4

[19] = system: H82 lung cancer cell line; assay: Cell viability assay (ATP quantitation); type: cell-based; conditions: 50 nM, 5 days, vs non-targeting control
Description: as §3, §4

[20] = system: SW1271 lung cancer cell line; assay: Cell viability assay (ATP quantitation); type: cell-based; conditions: 50 nM, 5 days, vs non-targeting control
Description: as §3, §4

AV4 melanoma cell line = assay: Cell viability assay (ATP quantitation); type: cell-based; conditions: 50 nM, 5 days, vs non-targeting control
Description: as §3, §4

[21] = system: H2228 lung cancer cell line; assay: Cell viability assay (ATP quantitation); type: cell-based; conditions: 50 nM, 5 days, vs non-targeting control
Description: as §3, §4

[22] = system: WM3060 melanoma cell line; assay: Cell viability assay (ATP quantitation); type: cell-based; conditions: 50 nM, 5 days, vs non-targeting control
Description: as §3, §4

[23] = system: U87-MG Glioblastoma cell line; assay: Cell viability assay (ATP quantitation); type: cell-based; conditions: 50 nM, 5 days, vs non-targeting control
Description: as §3, §4

[24] = system: U138-MG Glioblastoma cell line; assay: Cell viability assay (ATP quantitation); type: cell-based; conditions: 50 nM, 5 days, vs non-targeting control
Description: as §3, §4

[25] = system: T98G Glioblastoma cell line; assay: Cell viability assay (ATP quantitation); type: cell-based; conditions: 50 nM, 5 days, vs non-targeting control
Description: as §3, §4

[26] = system: H1299 lung cancer cell line; assay: Cell viability assay (ATP quantitation); type: cell-based; conditions: 50 nM, 5 days, vs non-targeting control
Description: as §3, §4

[27] = system: Sk-Mel-5 melanoma cell line; assay: Cell viability assay (ATP quantitation); type: cell-based; conditions: 50 nM, 5 days, vs non-targeting control
Description: as §3, §4

[28] = system: HCT116 colon carcinoma cell line; assay: Cell viability assay (ATP quantitation); type: cell-based; conditions: 50 nM, 5 days, vs non-targeting control
Description: as §3, §4

[29] = system: A-172 Glioblastoma cell line; assay: Cell viability assay (ATP quantitation); type: cell-based; conditions: 50 nM, 5 days, vs non-targeting control
Description: as §3, §4

For CC(=O)Nc1cccc(-n2c(=O)n(C3CC3)c(=O)c3c(Nc4ccc(I)cc4F)n(C)c(=O)c(C)c32)c1 [trametinib], the “increase of AC004540.4 (TRASH)-expression” value ([1]; 20 nM MEKi) was 0.31 fold, the “increase of AC004540.4 (TRASH)-expression” value ([1]; second MEKi concentration (not given)) was 0.36 fold and the “AC004540.4 (TRASH) upregulation” value ([2]; 20 nM MEKi) was 3.2 fold. For the same compound, the “AC004540.4 (TRASH) enrichment” value ([2]; 40 nM MEKi) was 5.4 fold.
“5′-ACAAAGAGAGACAGGAAAUUU-3′ (chain 2 AUUUCCUGUCUCUCUUUGUUU; listed as RNA, chemistry not given here) [SEQ ID NO:45]” was tested, and the cell viability decrease (MM415 melanoma cell line) was “significant cell viability decrease”, the cell viability decrease (D04 melanoma cell line) was “significant cell viability decrease” and the “cell viability decrease (RNAi screening)” value (melanoma cell lines) was “significant cell viability decrease”.
In the case of “AAGGAGGGTAAACGCT (chemistry not given here) [SEQ ID NO: 13, Antisense oligonucleotide targeting BX470102.3-008]”, the cell viability decrease [3] was “significant cell viability decrease”, the cell viability decrease [4] was “significant cell viability decrease” and the cell viability decrease [5] was “significant cell viability decrease”. The cell viability decrease [6] was “significant cell viability decrease”, the cell viability decrease [7] was “significant cell viability decrease” and the cell viability decrease (MM415 melanoma cell line) was “significant cell viability decrease”. The cell viability decrease [8] was “significant cell viability decrease”, the cell viability decrease (VMM39 melanoma cell line) was “significant cell viability decrease” and the cell viability decrease (D04 melanoma cell line) was “significant cell viability decrease”. The cell viability decrease [9] was “significant cell viability decrease”, the cell viability decrease [10] was “significant cell viability decrease” and the cell viability decrease [11] was “significant cell viability decrease”. For the same compound, the cell viability decrease [12] was “significant cell viability decrease”, the cell viability decrease [13] was “significant cell viability decrease” and the cell viability decrease [14] was “significant cell viability decrease”. The cell viability decrease [15] was “significant cell viability decrease”, the cell viability decrease [16] was “significant cell viability decrease” and the cell viability decrease [17] was “significant cell viability decrease”. For the same compound, the cell viability decrease [18] was “significant cell viability decrease”, the cell viability decrease (MM485 melanoma cell line) was “significant cell viability decrease” and the cell viability decrease (A375 melanoma cell line) was “significant cell viability decrease”. The cell viability decrease [19] was “significant cell viability decrease”, the cell viability decrease [20] was “significant cell viability decrease” and the cell viability decrease (AV4 melanoma cell line) was “significant cell viability decrease”. For the same compound, the cell viability decrease [21] was “significant cell viability decrease”, the cell viability decrease [22] was “significant cell viability decrease” and the cell viability decrease [23] was “significant cell viability decrease”. The cell viability decrease [24] was “significant cell viability decrease”, the cell viability decrease [25] was “significant cell viability decrease” and the cell viability decrease [26] was “significant cell viability decrease”. The cell viability decrease [27] was “significant cell viability decrease”, the cell viability decrease [28] was “significant cell viability decrease” and the cell viability decrease [29] was “significant cell viability decrease”.
